Experimental data published in patent US8530493B2, “Indolopyridines as Eg5 kinesin modulators” (4SC AG, priority 2006, dated 2013).

tested on: RKO p21 uninduced (proliferating) colon adenocarcinoma cells; experiment: Alamar Blue cell viability assay, RKO p21 uninduced (proliferating); assay type: cell-based; conditions: Homo sapiens, Table B3, anti-proliferative/cytotoxic activity, 72 hours, read-out: −log EC50 RKO p21 uninduced (proliferating) (converted)
Method in brief: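 Viability read by Alamar Blue fluorescence (ex 544, em 590 nm), normalised to untreated wells, after 72 h, 37° C, 5% CO2 compound exposure in triplicate. Cells were uninduced (no Ponasterone A), proliferating RKO colon carcinoma p27 or p21 subclones in DMEM with 10% FCS; values are −log EC50 (mol/l).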

CCOc1ccc2[nH]c3c(c2c1)C[C@@]1(C)C(=O)N(CCCN(CC)CCO)C(=O)N1[C@@H]3c1cccc(O)c1 (racemic) [Example 194, (3aSR,10RS)-6-Ethoxy-2-{3-[ethyl-(2-hydroxy-ethyl)-amino]-propyl}-10-(3-hydroxy-phenyl)-3a-methyl-3a,4,9,10-tetrahydro-2,9,10a-triaza-cyclopenta[b]fluorene-1,3-dione] and CCN(CCO)CCCN1C(=O)N2[C@H](c3cccc(O)c3)c3[nH]c4ccc(OC(F)F)cc4c3C[C@@]2(C)C1=O (racemic) [Example 177, (3aSR,10RS)-6-(1,1-Difluoro-methoxy)-2-{3-[ethyl-(2-hydroxy-ethyl)-amino]-propyl}-10-(3-hydroxy-phenyl)-3a-methyl-3a,4,9,10-tetrahydro-2,9,10a-triaza-cyclopenta[b]fluorene-1,3-dione] cannot be ordered by EC50: 39.8 to 251 nM for the first, no more than 39.8 nM for the second.

C[C@@]12Cc3c([nH]c4ccc(Br)cc34)[C@@H](c3cccc(O)c3)N1C(=O)N(CCN1CC=CCC1)C2=O (racemic) [Example 395, (3aSR,10RS)-6-Bromo-2-[2-(3,6-dihydro-2H-pyridin-1-yl)-ethyl]-10-(3-hydroxy-phenyl)-3a-methyl-3a,4,9,10-tetrahydro-2,9,10a-triaza-cyclopenta[b]fluorene-1,3-dione] and COc1cc2c3c([nH]c2cc1F)[C@@H](c1cccc(O)c1)N1C(=O)N(CCN2CC=CCC2)C(=O)[C@]1(C)C3 (racemic) [Example 265, (3aSR,10RS)-2-[2-(3,6-Dihydro-2H-pyridin-1-yl)-ethyl]-7-fluoro-10-(3-hydroxy-phenyl)-6-methoxy-3a-methyl-3a,4,9,10-tetrahydro-2,9,10a-triaza-cyclopenta[b]fluorene-1,3-dione] fall in the same range of EC50: 39.8 to 251 nM for the first, 39.8 to 251 nM for the second.

C=CCN(C)CCCN1C(=O)N2[C@H](c3cccc(O)c3)c3[nH]c4ccc(OCC)cc4c3C[C@@]2(C)C1=O (racemic) [Example 196, (3aSR,10RS)-2-[3-(Allyl-methyl-amino)-propyl]-6-ethoxy-10-(3-hydroyx-phenyl)-3a-methyl-3a,4,9,10-tetrahydro-2,9,10a-triaza-cyclopenta[b]fluorene-1,3-dione] and CCOc1ccc2[nH]c3c(c2c1)C[C@@]1(C)C(=O)N(CCCN(C)C)C(=O)N1[C@@H]3c1cccc(O)c1 (racemic) [Example 226, (3aSR,10RS)-2-(3-Dimethylamino-propyl)-6-ethoxy-10-(3-hydroxy-phenyl)-3a-methyl-3a,4,9,10-tetrahydro-2,9,10a-triaza-cyclopenta[b]fluorene-1,3-dione] fall in the same range of EC50: 39.8 to 251 nM for the first, 39.8 to 251 nM for the second.

C=CCN(C)CCN1C(=O)N2[C@H](c3cccc(O)c3)c3[nH]c4cc(F)c(Cl)cc4c3C[C@@]2(C)C1=O (racemic) [Example 362, (3aSR,10RS)-2-[2-(Allyl-methyl-amino)-ethyl]-6-chloro-7-fluoro-10-(3-hydroxy-phenyl)-3a-methyl-3a,4,9,10-tetrahydro-2,9,10a-triaza-cyclopenta[b]fluorene-1,3-dione] and COc1cc2c3c([nH]c2cc1F)[C@@H](c1cccc(O)c1)N1C(=O)N(CCN(C)C(C)C)C(=O)[C@]1(C)C3 (racemic) [Example 259, (3aSR,10RS)-7-Fluoro-10-(3-hydroyx-phenyl)-2-[2-(isopropyl-methyl-amino)-ethyl]-6-methoxy-3a-methyl-3a,4,9,10-tetrahydro-2,9,10a-triaza-cyclopenta[b]fluorene-1,3-dione] fall in the same range of EC50: 39.8 to 251 nM for the first, 39.8 to 251 nM for the second.

COc1ccc2[nH]c3c(c2c1)C[C@@]1(C)C(=O)N(CCCN2CCN(C(C)=O)CC2)C(=O)N1[C@@H]3c1cccc(O)c1 (racemic) [Example 151, (3aSR,10RS)-2-[3-(4-Acetyl-piperazin-1-yl)-propyl]-10-(3-hydroxy-phenyl)-6-methoxy-3a-methyl-3a,4,9,10-tetrahydro-2,9,10a-triaza-cyclopenta[b]fluorene-1,3-dione] and CC(=O)N1CCN(CCCN2C(=O)N3[C@H](c4cccc(O)c4)c4[nH]c5ccc(Br)cc5c4C[C@@]3(C)C2=O)CC1 (racemic) [Example 220, (3aSR,10RS)-2-[3-(4-Acetyl-piperazin-1-yl)-propyl]-6-bromo-10-(3-hydroxy-phenyl)-3a-methyl-3a,4,9,10-tetrahydro-2,9,10a-triaza-cyclopenta[b]fluorene-1,3-dione] fall in the same range of EC50: 39.8 to 251 nM for the first, 39.8 to 251 nM for the second.

CCOc1ccc2[nH]c3c(c2c1)C[C@@]1(C)C(=O)N(CCNC(C)(C)C)C(=O)N1[C@@H]3c1cccc(O)c1 (racemic) [Example 156, (3aSR,10RS)-2-(2-tert-Butylamino-ethyl)-6-ethoxy-10-(3-hydroxy-phenyl)-3a-methyl-3a,4,9,10-tetrahydro-2,9,10a-triaza-cyclopenta[b]fluorene-1,3-dione] and CCNCCCN1C(=O)N2[C@H](c3cccc(O)c3)c3[nH]c4ccc(Br)cc4c3C[C@@]2(C)C1=O (racemic) [Example 212, (3aSR,10RS)-6-Bromo-2-(3-ethylamino-propyl)-10-(3-hydroxy-phenyl)-3a-methyl-3a,4,9,10-tetrahydro-2,9,10a-triaza-cyclopenta[b]fluorene-1,3-dione] cannot be ordered by EC50: no more than 39.8 nM for the first, no more than 39.8 nM for the second.

CCN(CC)CCCN1C(=O)N2[C@H](c3cccc(O)c3)c3[nH]c4ccc(Br)cc4c3C[C@@]2(C)C1=O (racemic) [Example 228, (3aSR,10RS)-6-Bromo-2-(3-diethylamino-propyl)-10-(3-hydroxy-phenyl)-3a-methyl-3a,4,9,10-tetrahydro-2,9,10a-triaza-cyclopenta[b]fluorene-1,3-dione] and CCN(CCO)CCCN1C(=O)N2[C@H](c3cccc(O)c3)c3[nH]c4ccc(Br)cc4c3C[C@@]2(C)C1=O (racemic) [Example 231, (3aSR,10RS)-6-Bromo-2-{3-[ethyl-(2-hydroxy-ethyl)-amino]-propyl}-10-(3-hydroyx-phenyl)-3a-methyl-3a,4,9,10-tetrahydro-2,9,10a-triaza-cyclopenta[b]fluorene-1,3-dione] cannot be ordered by EC50: no more than 39.8 nM for the first, no more than 39.8 nM for the second.

COCCNCCCN1C(=O)N2[C@H](c3cccc(O)c3)c3[nH]c4ccc(OC(F)F)cc4c3C[C@@]2(C)C1=O (racemic) [Example 205, (3aSR,10RS)-6-(1,1-Difluoro-methoxy)-10-(3-hydroxy-phenyl)-2-[3-(2-methoxy-ethylamino)-propyl]-3a-methyl-3a,4,9,10-tetrahydro-2,9,10a-triaza-cyclopenta[b]fluorene-1,3-dione] and C[C@@]12Cc3c([nH]c4ccc(OC(F)F)cc34)[C@@H](c3cccc(O)c3)N1C(=O)N(CCN)C2=O (racemic) [Example 283, (3aSR,10RS)-2-(2-Amino-ethyl)-6-(1,1-difluoro-methoxy)-10-(3-hydroxy-phenyl)-3a-methyl-3a4,9,10-tetrahydro-2,9,10a-triaza-cyclopenta[b]fluorene-1,3-dione] fall in the same range of EC50: 39.8 to 251 nM for the first, 39.8 to 251 nM for the second.

COc1cc2c3c([nH]c2cc1F)[C@@H](c1cccc(O)c1)N1C(=O)N(CCCNCC2CC2)C(=O)[C@]1(C)C3 (racemic) [Example 304, (3aSR,10RS)-2-[3-(Cyclopropylmethyl-amino)-propyl]-7-fluoro-10-(3-hydroyx-phenyl)-6-methoxy-3a-methyl-3a,4,9,10-tetrahydro-2,9,10a-triaza-cyclopenta[b]fluorene-1,3-dione] and COCCNCCN1C(=O)N2[C@H](c3cccc(O)c3)c3[nH]c4cc(F)c(OC)cc4c3C[C@@]2(C)C1=O (racemic) [Example 253, (3aSR,10RS)-7-Fluoro-10-(3-hydroxy-phenyl)-6-methoxy-2-[2-(2-methoxy-ethylamino)-ethyl]-3a-methyl-3a,4,9,10-tetrahydro-2,9,10a-triaza-cyclopenta[b]fluorene-1,3-dione] fall in the same range of EC50: 39.8 to 251 nM for the first, 39.8 to 251 nM for the second.

COc1cc2c3c([nH]c2cc1F)[C@@H](c1cccc(O)c1)N1C(=O)N(CCCN2CCOCC2)C(=O)[C@]1(C)C3 (racemic) [Example 321, (3aSR,10RS)-7-Fluoro-10-(3-hydroxy-phenyl)-6-methoxy-3a-methyl-2-(3-morpholin-4-yl-propyl)-3a,4,9,10-tetrahydro-2,9,10a-triaza-cyclopenta[b]fluorene-1,3-dione] and C[C@@]12Cc3c([nH]c4cc(F)c(Cl)cc34)[C@@H](c3cccc(O)c3)N1C(=O)N(CCN1CCOCC1)C2=O (racemic) [Example 353, (3aSR,10RS)-6-Chloro-7-fluoro-10-(3-hydroxy-phenyl)-3a-methyl-2-(2-morpholin-4-yl-ethyl)-3a,4,9,10-tetrahydro-2,9,10a-triaza-cyclopenta[b]fluorene-1,3-dione] fall in the same range of EC50: 39.8 to 251 nM for the first, 39.8 to 251 nM for the second.

C[C@@]12Cc3c([nH]c4ccc(OC(F)F)cc34)[C@@H](c3cccc(O)c3)N1C(=O)N(CCNC1CC1)C2=O (racemic) [Example 286, (3aSR,10RS)-2-(2-Cyclopropylamino-ethyl)-6-(1,1-difluoro-methoxy)-10-(3-hydroxy-phenyl)-3a-methyl-3a,4,9,10-tetrahydro-2,9,10a-triaza-cyclpenta[b]fluorene-1,3-dione] and CC(C)CNCCN1C(=O)N2[C@H](c3cccc(O)c3)c3[nH]c4ccc(Br)cc4c3C[C@@]2(C)C1=O (racemic) [Example 391, (3aSR,10RS)-6-Bromo-10-(3-hydroxy-phenyl)-2-(2-isobutylamino-ethyl)-3a-methyl-3a,4,9,10-tetrahydro-2,9,10a-triaza-cyclopenta[b]fluorene-1,3-dione] cannot be ordered by EC50: 39.8 to 251 nM for the first, no more than 39.8 nM for the second.

COc1cc2c3c([nH]c2cc1F)[C@@H](c1cccc(O)c1)N1C(=O)N(CCN2CCC(C)CC2)C(=O)[C@]1(C)C3 (racemic) [Example 264, (3aSR,10RS)-7-Fluoro-10-(3-hydroxy-phenyl)-6-methoxy-3a-methyl-2-[2-(4-methyl-piperidin-1-yl)-ethyl]-3a,4,9,10-tetrahydro-2,9,10a-triaza-cyclopenta[b]fluorene-1,3-dione] and C[C@@]12Cc3c([nH]c4ccc(Br)cc34)[C@@H](c3cccc(O)c3)N1C(=O)N(CCCNCCO)C2=O (racemic) [Example 235, (3aSR,10RS)-6-Bromo-2-[3-(2-hydroxy-ethylamino)-propyl]-10-(3-hydroxy-phenyl)-3a-methyl-3a,4,9,10-tetrahydro-2,9,10a-triaza-cyclopenta[b]fluorene-1,3-dione] cannot be ordered by EC50: 39.8 to 251 nM for the first, no more than 39.8 nM for the second.
